Laboratory results: US6469027B1, “N-methyl-D-aspartate (NMDA) receptor blockers for the prevention of atherosclerosis” (The Board of Regents of the University of Nebraska, priority 1996, dated 2002)
Entries after “also recorded” stand apart in the source; their conditions may differ. Where two headings read alike, the source gives them in different places.

Columns and labels:
[1] = tested on: N-VSMC; test: [3H]thymidine incorporation (DNA synthesis) in N-VSMC cultures; format: cell-based, chicken
Procedure: FIG. 1 is a graph illustrating homocysteine's effects on the growth of VSMC cultures. Confluent N-VSMC cultures were growth arrested by incubating cells with M199 medium containing 1 μg/ml BSA for 48 h, exposed to various concentrations of H[cys] (0.01-4000μM) for 30 h, pulse labeled for 6 h with 2 μCi/ml [^3H]-thymidine, and cell monolayers were washed twice with cold (0° C.) 10% trichloroacetic acid (TCA). The amount of [^3H]-thymidine incorporation was determined by scintillation spectrophotometry. Results are shown as the means of ±S.D.
FIGS. 2A-2C are graphs illustrating the effects of glutamate, homocysteic acid and NMDA on DNA synthesis in N-VSMC. N-VSMC were cultured and serum-deprived as described in “Experimental Procedures.” Cultures were treated with various concentrations of homocysteic acid (2A), NMDA (2B), or L-glutamate (2C) for 30 and pulsed 6h with [^3H] thymidine. All values are expressed as ±S.D. of six independent experiments completed in quadruplicate.
(§1) Smooth Muscle Culture: The thoracic (N) and abdominal (M) aorta of normal 16 and 18-day embryos were cleaned of fat, and the intima-media was isolated from the adventitia. The intima-media was enzymatically dispersed into a single cell suspensions by a combination of collagenase and elastase followed by trypsin. VSMC were placed in primary culture at a constant density of 2×10^4 cells/cm^2 in multiwell plates or 100 mm culture plates in Medium 199 supplemented with 10% fetal bovine serum (FMS) and 2 mM glutamine, in an atmosphere of 95% air: 5% Co2 at 37° C. Primary cultures were grown for 7 days before they were seeded into first passage at the same cell density and grown to confluence. Experiments were carried out between passages 3-6. Experimental conditions for all cells included 48 h in Medium 199 supplemented with 1% FBS prior to initiating and experiment.
DNA Synthesis: Growth factors were added directly to quiescent VSMCs in Medium 199 as described above. The cells were pulsed between 4-6 h with a final concentration of 2-5 μCi/ml [^3H]thymidine added at the times and for the periods indicated in the figure legends. The cells were washed, and the incorporation of [^3H]thymidine into acid insoluble material was determined as previously described. Den-Heijer, M. et al. (1996), Hyperhomocystinemia as a risk factor for deep-vein thrombosis. N. Eng. J. Med. 334(12):759-762.

[2] = tested on: c-myb; test: c-myb expression in N-VSMC (RT-PCR, immunoprecipitation and western blot); format: cell-based, chicken; conditions: for effect on homocysteine-induced c-myb induction: 200 μM H[cys], 50 μM Mk-801 or 1 mM CGS19755, 24 hours
Procedure: FIGS. 3A, 3B and 3C are RNA blot analyses of c-fos and c-myb mRNA isolated from N-VSMC cultures. Cultures were incubated in the absence and presence of 200μM H[cys] for 0, (lane 1); 15 min, (lane 2); 30 min, (lane 3); 45 min, (lane 4) and 60 min, (lane 5); and analyzed for c-fos expression. In FIG. 3B, the time course of c-myb MRNA induction in the presence of 200μM H[cys] for 0 h, (lane 1); 8 h, (lane 2); 16 h, (lane 3); 24 h, (lane 4). The c-fos transcripts were analyzed by northern blot and normalized to β actin expression. The amount of c-myb mRNA levels were normalized to estrogen receptor (ER) transcripts as determined by RT-PCR. […] The amount of c-myb mRNA levels were normalized to estrogen receptor (ER) transcripts as determined by RT-PCR. The amount of specific radiolabeling in the autoradiograph was quantified by scanning densitometry. The size of the c-Myb protein is 75 kilodaltons. The 75 kilodalton band is defined as c-Myb because immunoprecipitation of this protein was not detected in the presence of synthetic polypeptide [[…] encoded by sequences 1080-1133].
FIG. 4 is a graph illustrating the analysis of c-myb synthesis in response to NMDA receptor antagonist, Mk-801 and CGS19755. Immunoprecipitation and western blotting of radiolabeled c-Myb from N-VSMC treated with 200μMH[cys] in the presence and absence of 50 μM Mk-801 or 1 mM CGS19755. Cell cultures were treated with and without H[cys] for 24 hours, extracts were immunoprecipitated with anti c-myb IgG and samples were separated by SDS-PAGE gels and western blotted. The amount of specific radiolabeling in the autoradiograph was quantified by scanning densitometry. The size of the c-Myb protein is 75 kilodaltons. The 75 kilodalton band is defined as c-Myb because immunoprecipitation of this protein was not detected in the presence of synthetic polypeptide [I13-[…] encoded by sequences 1080-1133].
RNA Blot Analysis: Total RNA was isolated from VSMC derived from thoracic and abdominal aorta by homogenization, and lysis with guanidinium isothiocyanate was followed by phenol-chloroform extraction. Ten micrograms of total RNA per lane was separated in a 1.5% agarose-formaldehyde gel, and the RNA was transferred by capillary transfer to a 0.45 μm nylon membrane. Filters were hybridized as previously with cDNAs labeled with [^32P]deoxycytidine5′-triphosphate to specific activities of approximately 2×10^9 cpm/μg using a random prime labeling kit (Boehringer Mannheim Biochemicals, Indianapolis, Ind.). The probes included chicken c-fos, Bactin, estrogen receptor (ER) and c myb.
Reverse Transcriptase-Polymerase Chain Reaction: Reverse transcription of 4 to 10,000 nanograms (ng) of RNA using 10 picomoles (pm) of hexamer primers was performed for 90 minutes (min) at 37° C. using 200 units superscript reverse transcriptase (Gibco BRL), in 50 mM Tris, pH, 8.2, 75 Mm KC1, 3 mM MgCl2, 10 mM dithiothreitol (DTT), 1 unit/μ1 RNasin (Promega), and 1 mM each of DATP, dCTP, dGTP, and dTTP. The samples were heated at 95° C. for 5 min to terminate the reverse transcription. The resulting cDNA was treated with 1 unit of […] at 37° C. for 20 min. A 5% fraction of the cDNA was subjected to PCR using c-myb upstream (5′ggTCCTTTgAAgATgCTgCC3′) and downstream(5′[…]gAgTCCgggTTg3′) primers; estrogen receptor (ER) (5′ggACTgCCAgCTgCCgATCTT3′) and (5′CTCACgAATgTggCgCCT3′) primers; β actin (5′AAgAggTAATCCTgACCCCTgAA3′) and (5′ACCCTgACCATCAgggAgTTCA3′) primers. PCR was performed using 0.25 μM of each primer, 3 μM cDNA, 0.2 mM of each deoxynucleotide triphosphate, 75 mM KC1, 1.5 mM MgCl2 and 0.5 unit Taq polymerase (Perkin Elmer; Cetus) in 10 mM Tris-HC1, pH 8.3 with total volume of 100 μl. […] PCR products were analyzed by electrophoresis in 1.5% agarose gels stained with ethidium bromide. PCR amplifications of all target templates and controls were run in parallel or on the same sample. […]

[3] = tested on: TA-VSMCs; test: [3H]thymidine labeling (DNA synthesis) in TA-VSMCs; format: cell-based
Text: Effect of calcium channel activation on DNA synthesis. Effect of glutamate receptor calcium channels and L-type calcium channels activation was examined by measuring [^3H]thymidine labeling.

[4] = tested on: N-VSMC; test: Cell proliferation (cell number) of N-VSMC cultures; format: cell-based, chicken; conditions: for effect on increase in cell number in the presence of H[cys]: 1% FBS and 100 μM H[cys]; for cell damage after treatment for ten days: low levels of PKC inhibitors, growth after removal
Procedure: FIGS. 5A and 5B are graphs illustrating cell growth and DNA synthesis of N-VSMC cultures. (A) Cells were cultured in M199 supplemented with 1% FBS in the presence and absence of 100 μM H[cys]. The medium was renewed every three days and cell numbers were determined by Coulter counter or emocytometer. Each point represents the mean of quadruplicate samples counted six times. (B) Cells were grown to confluency, growth arrested in M199 and 1 μg/ml of bovine serum albumin for two days. Cultures were exposed to various concentrations of H[cys] (0.01-1000 μM) for 30 h, pulse labeled for 6 h with 2 μCi/ml of [^3H]thymidine. The amount of [^3H]thymidine incorporation was determined by scintillation spectrophotometry. Results are shown as the mean of ±S.E.M.
FIGS. 7A-7C are graphs illustrating the effect of H[cys] on diacylglycerol content in N-VSMC. (A) Time course of changes of membrane diacylglycerol content cell treated with 100μM H[cys] for the various times. Cells were recovered, membrane lipids extracted and diacylglycerol amounts determined as described in Methods. Results are expressed as the mean ± standard error of quadruplicate incubations from six independent experiments. (B) Effects of varying concentrations of H[cys] on diacylglycerol synthesis. Cells were treated for 30 min with different concentrations of H[cys] and membrane lipids were isolated and the diacylglycerol content determined. (C) Effect of PKC inhibitors on H[cys] mediated cell proliferation. N-VSMC cultures were grown in 1% FBS and 100 μM H[cys] in the presence and absence of staurosporine and cheleyrithrine chloride for the times (days-d) indicated. Cells were counted in quadruplicate in a Coulter counter every three days. Values represent the mean ±S.D. from four independent experiments.
as §1

[5] = tested on: VSMC; conditions: low concentrations
[6] = tested on: Thoracic aorta VSMC from E14 embryos; test: Intracellular Ca++ by Fura 2 fluorometry; format: cell-based, chicken; conditions: 15 min pretreatment
Procedure: FIGS. 8A and 8B are graphs illustrating E14 embryonic neural crest-derived response to Hcy. (A) Normal E14 cell response; (B) Ca++ influx is prevented by 15 min pretreatment with NMDA receptor blocker MK801, which acts at the NMDA receptor calcium channel.
The most common signaling device for mitosis is calcium influx. Therefore, the inventors measured the change in intracellular Ca^++ by Fura 2 fluorometry. Thoracic aorta VSMC from E14 embryos were harvested and grown on coverslips using the procedure set forth above. Fura 2 was added during 45 minutes at room temperature. Then the cover slips were placed in a photometer. Fura 2 was excited at 350 and 380 nm with a xenon light source, appropriate monochromators and a chopper (Deltascan, Princeton). Emitted signals passed through a 510±20 band pass filter. When the cells were treated with a solution of 200 μM Hcy, there was a rapid flux of Ca^++ that reached a plateau in about 50 seconds, and remained elevated for the duration of the 500 sec measurement interval as shown in FIGS. 8A and 8B. Similar results have been found with adult rabbit aortic smooth muscle cells, as set forth below.

[7] = tested on: c-myb; test: c-myb expression in TA-VSMCs; format: cell-based; conditions: NMDA receptor blockers
[8] = high doses; cited from earlier work

CN[C@H](CC(=O)O)C(=O)O [NMDA, N-methyl D-aspartate acid]
activation of the same responses as H[cys] [1]: do not significantly activate | [3H] thymidine incorporation stimulated ([1]; 10 mM): 2 fold | expression of Myb, agonist per se ([2]; embryonic smooth muscle cells): did not induce | [3H] thymidine increased ([3]; incubated with NMDA): 2 fold

CN[C@@H]1C[C@H]2O[C@@](C)([C@@H]1OC)n1c3ccccc3c3c4c(c5c6ccccc6n2c5c31)C(=O)NC4 [staurosporine]
effect on increase in cell number in the presence of H[cys] [4]: blocked | cell damage after treatment for ten days [4]: did not permanently damage the cells

N[C@@H](CCS(=O)(=O)O)C(=O)O [homocysteic acid]
[3H] thymidine incorporation stimulated ([1]; 1 mM): 2 fold

N[C@@H](CCC(=O)O)C(=O)O [glutamate, L-glutamate]
activation of the same responses as H[cys] [1]: do not significantly activate | [3H] thymidine incorporation stimulated ([1]; 10 mM): 2 fold

O=C(O)CN(CCOCCOCCN(CC(=O)O)CC(=O)O)CC(=O)O [EGTA]
effect on stimulation of DNA synthesis ([3]; chelation of extra cellular Ca2+ by addition to the medium): prevented

CCO [ethanol]
effect on pharmacological effect of homocysteine in VSMC [5]: completely blocked

C[C@]12N[C@H](Cc3ccccc31)c1ccccc12 [MK-801]
effect on homocysteine-induced c-myb induction [2]: completely suppressed; also recorded: block | effect on homocysteine-induced cell proliferation [4]: inhibited | effect on homocysteine-induced cell proliferation ([4]; listed as Mk-801): block | effect on Hcy-induced Ca++ influx [6]: prevented | effect on NMDA and homocysteine DNA synthesis responses [3]: blocked | effect on homocysteine effect on c-myb expression [7]: blocked

COc1ccc2c(c1)[C@]13CCCC[C@@H]1[C@H](C2)N(C)CC3 [dextromethorphan]
side effects [8]: drowsiness, nausea, and decreased coordination

COc1ccc2c(c[n+](C)c3c4cc5c(cc4ccc23)OCO5)c1OC.[Cl-] [cheleyrthrine chloride]
effect on increase in cell number in the presence of H[cys] [4]: blocked | cell damage after treatment for ten days [4]: did not permanently damage the cells

O=C(O)[C@@H]1C[C@H](CP(=O)(O)O)CCN1 [CGS 19755]
effect on homocysteine-induced c-myb induction [2]: blocked | effect on homocysteine-induced c-myb induction ([2]; listed as CGS19755): block | effect on homocysteine-induced cell proliferation [4]: inhibited; also recorded: no increase in cell proliferation | effect on homocysteine-induced cell proliferation ([4]; listed as CGS19755): block | effect on NMDA and homocysteine DNA synthesis responses [3]: blocked | effect on homocysteine effect on c-myb expression [7]: blocked
